According to patent US5306808A, “Peptide derivatives having vasodilating activity” (Takeda Chemical Industries, Ltd., priority 1991, dated 1994):
Where a SMILES comes first, the peptide text is derived from it. Bridges are numbered along the chain shown (N, C = ends).

Assays:
porcine coronary artery = format: cell-based; settings: for Constrictor activity (Relative potency): ET-1 = 100; for Maximum Constriction (% 60 mM KCl): normalized to constriction response to 60 mM KCl
Description: Each of helical strips 2 mm×15 mm prepared from the coronary right ramus circumflexus from which the adventitial connective tissues and the endothelial cells were removed was set to each of 4 ml organ baths. Its tension was detected by a force displacement transducer UL-10GR (Minebea), and recorded by a polygraph (NEC Sanei). The organ baths were maintained at 37° C., and filled with a Krebs-Henseleit solution (composition:118 mM NaCl, 4.7 mM KCl, 2.5 mM CaCl2, 1.2 mM KH2 PO4, 25.0 mM NaHCO3, 1.2 mM MgSO4, 10.0 mM glucose) gassed with 95% O2 and 5% CO2.
A tension of 1.25 to 1.5 g was applied to each of the strips, followed by equilibration for 1.5 hours. 60 mM KCl was repeatedly applied thereto at intervals of 30 minutes until the constriction response became constant. After additional equilibration for 1.5 hours, a sample for assay was given. The constriction of the strips was normalized by the constriction response of the individual strips to 60 mM KCl and statistically processed.
(2) As to the antagonist property or the agonist property of the peptide derivatives of present invention to endothelin, the affinity for an endothelin receptor and the constrictor activity to porcine coronary smooth muscles (according to the method described in (1) described above) were assayed. The affinity for the receptor was assayed by the following method.

endothelin receptor = test: Assay of affinity for receptor (I125-ET-1 binding to porcine myocardial membrane fraction); settings: ET-1 = 100
Description: A membrane fraction prepared from the porcine heart was diluted to 0.15 mg/ml by using a buffer solution [PBS (pH 7.4) containing 0.5 mM CaCl2, 1.0 mM MgCl2, 0.02% NaN3, 0.1% BSA (fraction V, Sigma), 0.1 mM PMSF and 0.1 μg/ml pepstatin (binding buffer)] for assay, and 100 μl of the resulting suspension of the membrane fraction was poured into each assay tube to use for assay. To this suspension of the membrane fraction were added 2 μl of an endothelin-1 solution labeled with 5 μM radioactive iodine. Further, 3 μl of a test peptide solution was added thereto, followed by maintenance at a temperature of 25° C. for 1 hour. Then, the resulting suspension was diluted with 900 μl of the buffer solution for assay cooled with ice, and thereafter separated into a supernatant and a precipitate by centrifugation at 12,000×g for 10 minutes. Cell membranes and an endothelin receptor embedded therein were contained in the precipitate, and radioactive iodine-labeled endothelin combined with the receptor was also recovered in the precipitate. Accordingly, the amount of radioactive iodine-labeled endothelin combined with the endothelin receptor was determined by measuring the amount of radioactive iodine contained in the precipitate with a gamma-ray counter. Compounds in which the affinity for the endothelin receptor is high and the maximum constriction is not high are antagonists. Contrary to this, compounds in which the affinity for the endothelin receptor is high and the maximum constriction is high are agonists.

Receptor binding activity (Relative potency) (endothelin receptor) | SMILES | EC50 (porcine coronary artery; read-out: EC50 (% KCL), concentration which induces 50% of the constriction due to 60 mM KCl) | Constrictor activity (Relative potency) (porcine coronary artery) | Maximum Constriction (% 60 mM KCl) (porcine coronary artery)
9.1 | CC[C@H](C)[C@H](NC(=O)[C@H](C)NC(=O)[C@H](CC(C)C)NC(=O)[C@H](Cc1c[nH]cn1)NC(=O)[C@@H]1CSSC[C@H](N)C(=O)N[C@@H](CO)C(=O)N[C@H]2CSSC[C@H](NC(=O)[C@H](CCC(=O)O)NC(=O)[C@H](CCCCN)NC(=O)[C@H](CC(=O)O)NC(=O)[C@H](CCSC)NC(=O)[C@H](CC(C)C)NC(=O)[C@H](CO)NC(=O)[C@H](CO)NC2=O)C(=O)N[C@@H](C(C)C)C(=O)N[C@@H](Cc2ccc(O)cc2)C(=O)N[C@@H](Cc2ccccc2)C(=O)N1)C(=O)N[C@H](C(=O)N[C@@H](Cc1c[nH]c2ccccc12)C(=O)O)[C@@H](C)CC [Example 25, [Ala^18]-ET-1] (H-CSCSSLMDKECVYFCHLAIIW-OH; disulfide 1-15, 3-11) |  | 7.8 | 62 % 60 mM KCl
2.4 | CC[C@H](C)[C@H](NC(=O)[C@H](CC(C)C)NC(=O)[C@H](CC(C)C)NC(=O)[C@H](Cc1c[nH]cn1)NC(=O)[C@@H]1CSSC[C@H](N)C(=O)N[C@@H](CO)C(=O)N[C@H]2CSSC[C@H](NC(=O)[C@H](CCC(=O)O)NC(=O)[C@H](CCCCN)NC(=O)[C@H](CC(=O)O)NC(=O)[C@H](CCSC)NC(=O)[C@H](CC(C)C)NC(=O)[C@H](CO)NC(=O)[C@H](CO)NC2=O)C(=O)N[C@@H](C(C)C)C(=O)N[C@@H](Cc2ccc(O)cc2)C(=O)N[C@@H](Cc2ccccc2)C(=O)N1)C(=O)N[C@H](C(=O)N[C@@H](Cc1c[nH]c2ccccc12)C(=O)O)[C@@H](C)CC [Example 26, [Leu^18]-ET-1] (H-CSCSSLMDKECVYFCHLLIIW-OH; disulfide 1-15, 3-11) |  | < 0.1 | 0 % 60 mM KCl
3.2 | CC[C@H](C)[C@H](NC(=O)[C@@H](NC(=O)[C@H](CC(C)C)NC(=O)[C@H](Cc1c[nH]cn1)NC(=O)[C@@H]1CSSC[C@H](N)C(=O)N[C@@H](CO)C(=O)N[C@H]2CSSC[C@H](NC(=O)[C@H](CCC(=O)O)NC(=O)[C@H](CCCCN)NC(=O)[C@H](CC(=O)O)NC(=O)[C@H](CCSC)NC(=O)[C@H](CC(C)C)NC(=O)[C@H](CO)NC(=O)[C@H](CO)NC2=O)C(=O)N[C@@H](C(C)C)C(=O)N[C@@H](Cc2ccc(O)cc2)C(=O)N[C@@H](Cc2ccccc2)C(=O)N1)C(C)C)C(=O)N[C@H](C(=O)N[C@@H](Cc1c[nH]c2ccccc12)C(=O)O)[C@@H](C)CC [Example 27, [Val^18]-ET-1] (H-CSCSSLMDKECVYFCHLVIIW-OH; disulfide 1-15, 3-11) |  | < 0.1 | 2 % 60 mM KCl

The next lines start with the compound.

SMILES | Receptor binding activity (Relative potency) (endothelin receptor) | EC50 (porcine coronary artery; read-out: EC50 (% KCL), concentration which induces 50% of the constriction due to 60 mM KCl) | Constrictor activity (Relative potency) (porcine coronary artery) | Maximum Constriction (% 60 mM KCl) (porcine coronary artery)
CC[C@H](C)[C@H](NC(=O)[C@H](CC(=O)O)NC(=O)[C@H](CC(C)C)NC(=O)[C@H](Cc1c[nH]cn1)NC(=O)[C@@H]1CSSC[C@H](N)C(=O)N[C@@H](CO)C(=O)N[C@H]2CSSC[C@H](NC(=O)[C@H](CCC(=O)O)NC(=O)[C@H](CCCCN)NC(=O)[C@H](CC(=O)O)NC(=O)[C@H](CCSC)NC(=O)[C@H](CC(C)C)NC(=O)[C@H](CO)NC(=O)[C@H](CO)NC2=O)C(=O)N[C@@H](C(C)C)C(=O)N[C@@H](Cc2ccc(O)cc2)C(=O)N[C@@H](Cc2ccccc2)C(=O)N1)C(=O)N[C@H](C(=O)N[C@@H](Cc1c[nH]c2ccccc12)C(=O)O)[C@@H](C)CC [ET-1, endothelin-1, reference compound] |  | 1.6 nM |  | 
CC[C@H](C)[C@H](NC(=O)[C@H](CC(=O)O)NC(=O)[C@H](CC(C)C)NC(=O)[C@H](Cc1c[nH]cn1)NC(=O)[C@@H]1CSSC[C@H](N)C(=O)N[C@@H](CO)C(=O)N[C@@H](Cc2c[nH]c3ccccc23)C(=O)N[C@@H](CO)C(=O)N[C@@H](CO)C(=O)N[C@@H](CC(C)C)C(=O)N[C@@H](CCSC)C(=O)N[C@@H](CC(=O)O)C(=O)N[C@@H](CCCCN)C(=O)N[C@@H](CCC(=O)O)C(=O)N[C@@H](C)C(=O)N[C@@H](C(C)C)C(=O)N[C@@H](Cc2ccc(O)cc2)C(=O)N[C@@H](Cc2ccccc2)C(=O)N1)C(=O)N[C@H](C(=O)N[C@@H](Cc1c[nH]c2ccccc12)C(=O)O)[C@@H](C)CC [Example 13, [Trp^3, Ala^11]-ET-1] (H-CSWSSLMDKEAVYFCHLDIIW-OH; disulfide 1-15) | 2.5 |  | < 0.1 | 6 % 60 mM KCl
CC[C@H](C)[C@H](NC(=O)[C@H](C)NC(=O)[C@H](CC(C)C)NC(=O)[C@H](Cc1c[nH]cn1)NC(=O)[C@@H]1CSSC[C@H](N)C(=O)N[C@@H](CO)C(=O)N[C@@H](C)C(=O)N[C@@H](CO)C(=O)N[C@@H](CO)C(=O)N[C@@H](CC(C)C)C(=O)N[C@@H](CCSC)C(=O)N[C@@H](CC(=O)O)C(=O)N[C@@H](CCCCN)C(=O)N[C@@H](CCC(=O)O)C(=O)N[C@@H](C)C(=O)N[C@@H](C(C)C)C(=O)N[C@@H](Cc2ccc(O)cc2)C(=O)N[C@@H](Cc2ccccc2)C(=O)N1)C(=O)N[C@H](C(=O)N[C@@H](Cc1c[nH]c2ccccc12)C(=O)O)[C@@H](C)CC [Example 21, [Ala^3,11,18]-ET-1] (H-CSASSLMDKEAVYFCHLAIIW-OH; disulfide 1-15) | 1.59 |  | < 0.1 | 6 % 60 mM KCl
CC[C@H](C)[C@H](NC(=O)[C@H](CC(C)C)NC(=O)[C@H](CC(C)C)NC(=O)[C@H](Cc1c[nH]cn1)NC(=O)[C@@H]1CSSC[C@H](N)C(=O)N[C@@H](CO)C(=O)N[C@@H](C)C(=O)N[C@@H](CO)C(=O)N[C@@H](CO)C(=O)N[C@@H](CC(C)C)C(=O)N[C@@H](CCSC)C(=O)N[C@@H](CC(=O)O)C(=O)N[C@@H](CCCCN)C(=O)N[C@@H](CCC(=O)O)C(=O)N[C@@H](C)C(=O)N[C@@H](C(C)C)C(=O)N[C@@H](Cc2ccc(O)cc2)C(=O)N[C@@H](Cc2ccccc2)C(=O)N1)C(=O)N[C@H](C(=O)N[C@@H](Cc1c[nH]c2ccccc12)C(=O)O)[C@@H](C)CC [Example 22, [Ala^3,11, Leu^18]-ET-1] (H-CSASSLMDKEAVYFCHLLIIW-OH; disulfide 1-15) | 1.27 |  | < 0.1 | 3 % 60 mM KCl
CC[C@H](C)[C@H](NC(=O)[C@H](Cc1ccccc1)NC(=O)[C@H](CC(C)C)NC(=O)[C@H](Cc1c[nH]cn1)NC(=O)[C@@H]1CSSC[C@H](N)C(=O)N[C@@H](CO)C(=O)N[C@@H](C)C(=O)N[C@@H](CO)C(=O)N[C@@H](CO)C(=O)N[C@@H](CC(C)C)C(=O)N[C@@H](CCSC)C(=O)N[C@@H](CC(=O)O)C(=O)N[C@@H](CCCCN)C(=O)N[C@@H](CCC(=O)O)C(=O)N[C@@H](C)C(=O)N[C@@H](C(C)C)C(=O)N[C@@H](Cc2ccc(O)cc2)C(=O)N[C@@H](Cc2ccccc2)C(=O)N1)C(=O)N[C@H](C(=O)N[C@@H](Cc1c[nH]c2ccccc12)C(=O)O)[C@@H](C)CC [Example 23, [Ala^3,11, Phe^18]-ET-1] (H-CSASSLMDKEAVYFCHLFIIW-OH; disulfide 1-15) | 1.27 |  | < 0.1 | 8 % 60 mM KCl
CC[C@H](C)[C@H](NC(=O)CNC(=O)[C@H](CC(C)C)NC(=O)[C@H](Cc1c[nH]cn1)NC(=O)[C@@H]1CSSC[C@H](N)C(=O)N[C@@H](CO)C(=O)N[C@H]2CSSC[C@H](NC(=O)[C@H](CCC(=O)O)NC(=O)[C@H](CCCCN)NC(=O)[C@H](CC(=O)O)NC(=O)[C@H](CCSC)NC(=O)[C@H](CC(C)C)NC(=O)[C@H](CO)NC(=O)[C@H](CO)NC2=O)C(=O)N[C@@H](C(C)C)C(=O)N[C@@H](Cc2ccc(O)cc2)C(=O)N[C@@H](Cc2ccccc2)C(=O)N1)C(=O)N[C@H](C(=O)N[C@@H](Cc1c[nH]c2ccccc12)C(=O)O)[C@@H](C)CC [Example 28, [Gly^18]-ET-1] (H-CSCSSLMDKECVYFCHLGIIW-OH; disulfide 1-15, 3-11) | 39.8 |  | 43 | 99 % 60 mM KCl
